Measured values as given in US12338266B2 (GENETIC S.P.A., priority 2019, dated 2025).

What was measured:
[1] = tested on: mice with OVA-induced allergic asthma; assay: Bronchial reactivity to carbachol, isolated bronchi of OVA-sensitized mice (Protocol-1); assay type: in vivo, Balb/c mice
Protocol: Balb/c mice (8-9 weeks old, Charles River, Calco, Italy) were housed in the animal care facility at the Department of Pharmacy of the University of Naples. […] All animals were allowed to acclimate for four days prior to experiments and were subjected to 12 h light-12 h dark schedule. Each mouse was assigned an identity number and randomtzed to different groups so that all experiments were carried out in a blinded manner. The experimental procedures were approved by the Italian Ministry according to International and National law and policies (EU Directive 2010/63/EU and Italian DL 26/2014 for animal experiments, ARRIVE guidelines and the Basel declaration including the 3R concept). Animal studies are reported in compliance with the ARRIVE guidelines. Balb/c mice is the most widely mouse strain used to study asthma-like features in vivo and to investigate the undedying molecular and cellular mechanisms of allergen sensitization. Mice were treated subcutaneously (s.c.) with 0.4 mL (100 μg) of ovalbumin (OVA) complexed with alum (13 mg mL^−1) (OVA group) at day 0 and 7. Chicken egg-white ovalbumin (OVA: grade V. cat. A5503, Sigma Chemical Co., St. Louis, MO) was dissolved in sterile phosphate buffered saline (PBS) solution (250 μg/1 ml) and Al(OH)3 was added (at 13 mg/ml). This mix was used to induce the allergic sensitization of the animals by subcutaneous injection. OVA was dissolved at 3% in sterile PBS solution and this solution was nebulized (as the immunological challenges). At day 21 mice were exposed to OVA challenge for three days and then sacrificed. […] A group of animals was treated s.c. with saline (vehicle group). […] Animals were killed at selected time points by overdose of enflurane and bronchi and blood collected. Main bronchi were rapidly dissected and cleaned from fat and connective tissue. […] Results were expressed as dyne/mg tissue. In another set of experiments on bronchi pre-contracted with carbachol and salbutamol-induced relaxation was assessed.

[2] = tested on: mice with OVA-induced allergic asthma; assay: Plasma IgE levels by ELISA in OVA-sensitized mice (Protocol-1); assay type: in vivo, Balb/c mice
Protocol: Balb/c mice (8-9 weeks old, Charles River, Calco, Italy) were housed in the animal care facility at the Department of Pharmacy of the University of Naples. Italy in a controlled environment (temperature 21±2° C. and humidity 60±10%) and provided with standard rodent chow and water. All animals were allowed to acclimate for four days prior to experiments and were subjected to 12 h light-12 h dark schedule. Each mouse was assigned an identity number and randomtzed to different groups so that all experiments were carried out in a blinded manner. The experimental procedures were approved by the Italian Ministry according to International and National law and policies (EU Directive 2010/63/EU and Italian DL 26/2014 for animal experiments, ARRIVE guidelines and the Basel declaration including the 3R concept). Animal studies are reported in compliance with the ARRIVE guidelines. Balb/c mice is the most widely mouse strain used to study asthma-like features in vivo and to investigate the undedying molecular and cellular mechanisms of allergen sensitization. Mice were treated subcutaneously (s.c.) with 0.4 mL (100 μg) of ovalbumin (OVA) complexed with alum (13 mg mL^−1) (OVA group) at day 0 and 7. Chicken egg-white ovalbumin (OVA: grade V. cat. A5503, Sigma Chemical Co., St. Louis, MO) was dissolved in sterile phosphate buffered saline (PBS) solution (250 μg/1 ml) and Al(OH)3 was added (at 13 mg/ml). This mix was used to induce the allergic sensitization of the animals by subcutaneous injection. OVA was dissolved at 3% in sterile PBS solution and this solution was nebulized (as the immunological challenges). At day 21 mice were exposed to OVA challenge for three days and then sacrificed. This experimental procedure induces in the mice an increase in plasma IgE levels and this effect is by itself sufficient to induce a significant increase in bronchial hyper-responsiveness and pulmonary inflammation, typical hallmarks of asthma. A group of animals was treated s.c. with saline (vehicle group). […] Animals were killed at selected time points by overdose of enflurane and bronchi and blood collected.
Blood was collected by intracardiac puncture using citrate as anticoagulant. Plasma was obtained by centrifugation at 800×g at 4′C for 10 minutes and immediately frozen at −80° C. Total IgE levels were measured by means of ELISA using matched antibody pairs (BD Biosciences Pharmingen San Jose, Calif.).

CC(C)(O)c1ccccc1CCC(SCC1(CC(=O)OCC(=O)[C@@]23O[C@H](C4CCCCC4)O[C@@H]2C[C@H]2[C@@H]4CCC5=CC(=O)C=C[C@]5(C)[C@H]4[C@@H](O)C[C@@]23C)CC1)c1cccc(/C=C/c2ccc3ccc(Cl)cc3n2)c1 (some centres unmarked) [montelukast desisobutyryl-ciclesonide ester]
control of bronchial hyper-reactivity (response to carbachol) ([1]; 0.5, 1 and 2 mg/Kg i.p. 1 hour before OVA challenge, FIG. 5A): good control of bronchial hyper-reactivity at all doses tested
control of hyper-reactivity to carbachol, compared to ciclesonide ([1]; ester 2 mg/kg i.p. vs ciclesonide 1 mg/kg, FIG. 6A): major efficacy in the control of the development of hyper-reactivity to carbachol
effect on bronchial hyper-responsiveness, ester versus montelukast ([1]; ester 2 mg/kg i.p. vs montelukast 1 mg/kg, FIG. 7A): comparable
allergen induced plasma IgE increase ([2]; 0.5, 1 and 2 mg/Kg i.p.): reduces allergen induced IgE increase in a dose-dependent manner
inhibition of allergen induced IgE increase, compared to ciclesonide ([2]; ester 2 mg/kg i.p. vs ciclesonide 1 mg/kg, FIG. 6C): increased inhibitory effect
